Consider 25 compounds from patent US10118902B2 (Sanford Burnham Prebys Medical Discovery Institute, priority 2014, dated 2018).

Molecules are shown by their SMILES.

In the assay the target is neurotensin receptor 1 (NTR1) (Homo sapiens (Human), UniProt P30989). The experiment in a line: NTR1 dose response, high-content imaging beta-arrestin-GFP assay in NTR1-U2OS cells. The format is cell-based. Particulars: read-out: EC50. The text has this: The cell lines utilized in the high-content imaging assays, which include the NTR1-, NTR2-, and GPR35-U2OS osteosarcomas, were obtained from the laboratory of Dr. Lawrence Barak at the Duke University Medical Center. The media used in the culture of the cell lines, as well as the assays themselves, consisted of Minimum Essential Medium (15-010-CM) and L-glutamine (25-005-CL) from Cellgro/Mediatech (Manassas, Va.), fetal bovine serum (SH30396.03) from Hyclone (Logan, Utah), penicillin-streptomycin solution (PS-20) from Omega Scientific in Tarzana, Calif., G418 (ant-gn-1) from Invivogen (San Diego, Calif.), and zeocin (R250-01) from Invitrogen (Carlsbad, Calif.). Cell lines were cultured in T225 tissue culture flasks (431082) supplied by Corning (Corning, N.Y.). Additional reagents employed include Dulbecco's Phosphate-Buffered Saline (DPBS) (21-031CV) from Cellgro/Mediatech, Trypsin-EDTA 0.05% (25300) from Invitrogen, paraformaldehyde (30528954) from Acros Organics (Geel, Belgium), Hoechst 33342 (H3570) from Invitrogen. The high-content assays were run in 1536-well plates (29326) supplied by Aurora Biotechnology (Poway, Calif.) and utilized aluminum plate seals (T592100) from E&K Scientific (Santa Clara, Calif.). […]
Chain of neurotensin receptor 1 (NTR1) (P30989 whole entry, species assumed): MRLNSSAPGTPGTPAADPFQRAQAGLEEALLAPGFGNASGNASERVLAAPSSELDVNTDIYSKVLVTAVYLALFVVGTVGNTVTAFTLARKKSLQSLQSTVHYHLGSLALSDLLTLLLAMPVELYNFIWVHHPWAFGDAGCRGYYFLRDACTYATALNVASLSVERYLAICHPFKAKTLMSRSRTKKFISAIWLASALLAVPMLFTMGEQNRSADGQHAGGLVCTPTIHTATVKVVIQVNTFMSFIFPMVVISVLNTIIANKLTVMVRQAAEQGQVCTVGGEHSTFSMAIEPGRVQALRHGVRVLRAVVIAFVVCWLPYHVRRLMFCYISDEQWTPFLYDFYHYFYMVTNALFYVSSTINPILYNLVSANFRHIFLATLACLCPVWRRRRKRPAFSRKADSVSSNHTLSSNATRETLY
The high-content imaging based NTR1 primary screen in 1536-well format was utilized to assay the MLSMR library of chemical entities in the following manner. On day one, 4 uL of a cell suspension containing 350,000 NTR1-U2OS cells per mL is added to each well of a 1536-well assay plate. Cells are plated in MEM medium containing 2.5% Fetal Bovine Serum, 1% Penicillin/Streptomycin solution, 1% L-Glutamine, 400 ug/mL G418, and 200 ug/mL Zeocin. The assay plates are then incubated overnight at 37° C., under 5% CO2. Following the overnight incubation, a volume of 60 nL of the compounds at 2 mM in DMSO (final 20 μM, 1% DMSO) was transferred to columns 5-48 of the assay plates using a LabCyte Echo Liquid Handler. Next, 60 nL of DMSO were dispensed to columns 1-4, which served as the positive and neutral control wells. […] The assay plates were centrifuged on an Eppendorf 5810 centrifuge at 1000 rpm for 1 min to ensure even liquid levels in the wells of the assay plates. The assay plates were then returned to the incubator for 1 hour. Following the hour-long incubation at 37° C., the cells in each well were fixed with 4 uL of 6% paraformaldehyde added with a Multidrop Combi. The assay plates were centrifuged as before and incubated at room temperature for 1 hour. On the Kalypsys, plates were then aspirated down to 2.5 uL per well and washed twice with 11 uL per well of DPBS, followed by a final aspiration to 2.5 uL per well. On the Combi dispenser, 5 uL of 5 ug/mL Hoechst 33342 diluted in DPBS was added to each well of assay plates. The plates were again centrifuged as previously described, sealed, and incubated for at least 1 hour prior to being loaded on a PerkinElmer Opera QEHS.
Image acquisition was performed with a 45 plate capacity loader/stacker and the following settings: 40×0.6 NA air objective, acquisition camera set to 2-by-2 binning for an image size of 688 by 512 pixels, beta-arrestin-GFP acquired using 488 nm laser excitation and 540/75 nm emission filters, DAPI (nuclei) using 365 nm Xenon lamp excitation and 450/50 nm emission filters, 3 fields per well. Image analysis was performed using the Acapella Spot Detection Algorithm. For analysis settings and the metrics employed in the data analyses, please refer to supplemental information.
Compounds that were successfully confirmed in quadruplicate at 20 uM were then run in dose response in the primary assay. As with the single concentration hit confirmation, the assay was performed in an identical manner as the primary screen with the following modifications. […]
As usually defined, the EC50 is the concentration at which the effect is half-maximal. For `COc1ccccc1C1CCN(c2nc(C3CC3)nc3ccc(N4CC[C@@H](N(C)C)C4)cc23)CC1` (stereo in doubt) [Example 91, (1-{2-cyclopropyl-4-[4-(2-methoxy-phenyl)-piperidin-1-yl]-quinazolin-6-yl}-pyrrolidin-3-yl)-dimethyl-amine], the EC50 was in the range of 2000 to 10000 nM.

For the compound `COc1ccccc1N[C@@H]1CCN(c2nc(C3CC3)nc3ccc(N(C)CCO)cc23)C1` (stereo in doubt) [Example 153, 2-({2-cyclopropyl-4-[3-(2-methoxy-phenylamino)-pyrrolidin-1-yl]-quinazolin-6-yl}-methyl-amino)-ethanol], the EC50 was greater than 10000 nM.

As for `COc1ccccc1C1CCN(c2nc(C3(F)CC3)nc3c(Cl)cc(N4CC[C@@H](O)C4)cc23)CC1` (stereo in doubt) [Example 202, 1-{8-Chloro-2-(1-fluoro-cyclopropyl)-4-[4-(2-methoxy-phenyl)-piperidin-1-yl]-quinazolin-6-yl}-pyrrolidin-3-ol], the EC50 fell in the range of 500 to 2000 nM.

Regarding `COc1ccccc1C1CCN(c2nc(C3(F)CC3)nc3c(Cl)cc(N4CC[C@H](O)C4)cc23)CC1` (stereo in doubt) [Example 203, 1-{8-Chloro-2-(1-fluoro-cyclopropyl)-4-[4-(2-methoxy-phenyl)-piperidin-1-yl]-quinazolin-6-yl}-pyrrolidin-3-ol], the EC50 lay in the range of 2000 to 10000 nM.

For the compound `CN(C)c1ccc2nc(C3CC3)nc(N3CCN(c4ccccc4N4CCC4)CC3)c2c1` [Example 1, {4-[4-(2-azetidin-1-yl-phenyl)-piperazin-1-yl]-2-cyclopropyl-quinazolin-6-yl}-dimethyl-amine], the EC50 lay in the range of 500 to 2000 nM.

As for `CCN(C)c1ccc2nc(C3CC3)nc(N3CCN(c4ccccc4N4CCC4)CC3)c2c1` [Example 2, {4-[4-(2-azetidin-1-yl-phenyl)-piperazin-1-yl]-2-cyclopropyl-quinazolin-6-yl}-ethyl-methyl-amine], the EC50 fell in the range of 500 to 2000 nM.

Regarding `CN(C)c1ccc2nc(C3CC3)nc(N3CCC(c4ccccc4N4CCC4)CC3)c2c1` [Example 3], the EC50 is greater than 10000 nM.

`CCN(C)c1ccc2nc(C3CC3)nc(N3CCC(c4ccccc4N4CCC4)CC3)c2c1` [Example 4, {4-[4-(2-azetidin-1-yl-phenyl)-piperidin-1-yl]-2-cyclopropyl-quinazolin-6-yl}-ethyl-methyl-amine]: the concentration for a half-maximal effect (EC50) is greater than 10000 nM.

On to `CN(C)CCN(C)c1ccc2nc(C3CC3)nc(N3CCC(c4ccccc4N4CCC4)CC3)c2c1` [Example 5, N-{4-[4-(2-azetidin-1-yl-phenyl)-piperidin-1-yl]-2-cyclopropyl-quinazolin-6-yl}-N,N′,N′-trimethyl-ethane-1,2-diamine], for which the EC50 lay within 2000 to 10000 nM.

`CN(CCO)c1ccc2nc(C3CC3)nc(N3CCC(c4ccccc4N4CCC4)CC3)c2c1` [Example 6, 2-({4-[4-(2-azetidin-1-yl-phenyl)-piperidin-1-yl]-2-cyclopropyl-quinazolin-6-yl}-methyl-amino)-ethanol]: the 50% effective concentration (EC50) was in the range of 500 to 2000 nM.

As for `COCCN(C)c1ccc2nc(C3CC3)nc(N3CCC(c4ccccc4N4CCC4)CC3)c2c1` [Example 7, {4-[4-(2-azetidin-1-yl-phenyl)-piperidin-1-yl]-2-cyclopropyl-quinazolin-6-yl}-(2-methoxy-ethyl)-methyl-amine], the EC50 lay in the range of 2000 to 10000 nM.

For the compound `CN(CCN1CCOCC1)c1ccc2nc(C3CC3)nc(N3CCC(c4ccccc4N4CCC4)CC3)c2c1` [Example 8, {4-[4-(2-azetidin-1-yl-phenyl)-piperidin-1-yl]-2-cyclopropyl-quinazolin-6-yl}-methyl-(2-morpholin-4-yl-ethyl)-amine], the EC50 lay in the range of 500 to 2000 nM.

With `CN(CCN1CCCC1)c1ccc2nc(C3CC3)nc(N3CCC(c4ccccc4N4CCC4)CC3)c2c1` [Example 9, {4-[4-(2-azetidin-1-yl-phenyl)-piperidin-1-yl]-2-cyclopropyl-quinazolin-6-yl}-methyl-(2-pyrrolidin-1-yl-ethyl)-amine], the EC50 was greater than 10000 nM.

On to `CN(C)c1ccccc1C1CCN(c2nc(C3CC3)nc3ccc(N(C)CCO)cc23)CC1` [Example 10, 2-({2-cyclopropyl-4-[4-(2-dimethylamino-phenyl)-piperidin-1-yl]-quinazolin-6-yl}-methyl-amino)-ethanol], for which the EC50 lay within 2000 to 10000 nM.

Consider `COCCN(C)c1ccc2nc(C3CC3)nc(N3CCC(c4ccccc4N(C)C)CC3)c2c1` [Example 11, {2-cyclopropyl-4-[4-(2-dimethylamino-phenyl)-piperidin-1-yl]-quinazolin-6-yl}-(2-methoxy-ethyl)-methyl-amine], for which the EC50 lay in the range of 2000 to 10000 nM.

In the case of `CN(C)c1ccccc1C1CCN(c2nc(C3CC3)nc3ccc(N(C)CCN4CCOCC4)cc23)CC1` [Example 12, {2-Cyclopropyl-4-[4-(2-dimethylamino-phenyl)-piperidin-1-yl]-quinazolin-6-yl}-methyl-(2-morpholin-4-yl-ethyl)-amine], the EC50 was in the range of 2000 to 10000 nM.

On to `CN(C)c1ccccc1C1CCN(c2nc(C3CC3)nc3ccc(N(C)CCN4CCCC4)cc23)CC1` [Example 13, {2-cyclopropyl-4-[4-(2-dimethylamino-phenyl)-piperidin-1-yl]-quinazolin-6-yl}-methyl-(2-pyrrolidin-1-yl-ethyl)-amine], for which the concentration giving a half-maximal response (EC50) lay in the range of 2000 to 10000 nM.

For the compound `CN(C)CCN(C)c1ccc2nc(C3CC3)nc(N3CCC(c4ccccc4N(C)C)CC3)c2c1` [Example 14, N-{2-cyclopropyl-4-[4-(2-dimethylamino-phenyl)-piperidin-1-yl]-quinazolin-6-yl}-N,N′,N′-trimethyl-ethane-1,2-diamine], the EC50 lay within 2000 to 10000 nM.

In the case of `COc1ccccc1C1CCN(c2nc(C3(F)CC3)nc3ccc(N(C)CCO)cc23)CC1` [Example 15, 2-({2-(1-Fluoro-cyclopropyl)-4-[4-(2-methoxy-phenyl)-piperidin-1-yl]-quinazolin-6-yl}-methyl-amino)-ethanol], the EC50 was less than 500 nM.

Regarding `COCCN(C)c1ccc2nc(C3(F)CC3)nc(N3CCC(c4ccccc4OC)CC3)c2c1` [Example 16, {2-(1-fluoro-cyclopropyl)-4-[4-(2-methoxy-phenyl)-piperidin-1-yl]-quinazolin-6-yl}-(2-methoxy-ethyl)-methyl-amine], the EC50 lay in the range of 500 to 2000 nM.

For the compound `COc1ccccc1C1CCN(c2nc(C3(F)CC3)nc3ccc(N(C)CCN4CCOCC4)cc23)CC1` [Example 17, {2-(1-fluoro-cyclopropyl)-4-[4-(2-methoxy-phenyl)-piperidin-1-yl]-quinazolin-6-yl}-methyl-(2-morpholin-4-yl-ethyl)-amine], the EC50 was in the range of 500 to 2000 nM.

On to `COc1ccccc1C1CCN(c2nc(C3(F)CC3)nc3ccc(N(C)C)cc23)CC1` [Example 18, {2-(1-fluoro-cyclopropyl)-4-[4-(2-methoxy-phenyl)-piperidin-1-yl]-quinazolin-6-yl}-dimethyl-amine], for which the EC50 was in the range of 500 to 2000 nM.

For `COc1ccccc1C1CCN(c2nc(C3(N(C)C)CC3)nc3ccc(N(C)C)cc23)CC1` [Example 19, {2-(1-dimethylamino-cyclopropyl)-4-[4-(2-methoxy-phenyl)-piperidin-1-yl]-quinazolin-6-yl}-dimethyl-amine], the EC50 was greater than 10000 nM.

Regarding `CCCN(C)c1ccc2nc(C3(F)CC3)nc(N3CCC(c4ccccc4OC)CC3)c2c1` [Example 20, {2-(1-fluoro-cyclopropyl)-4-[4-(2-methoxy-phenyl)-piperidin-1-yl]-quinazolin-6-yl}-methyl-propyl-amine], the EC50 fell in the range of 500 to 2000 nM.

For `CCCN(C)c1ccc2nc(C3(N(C)CCC)CC3)nc(N3CCC(c4ccccc4OC)CC3)c2c1` [Example 21, {4-[4-(2-methoxy-phenyl)-piperidin-1-yl]-2-[1-(methyl-propyl-amino)-cyclopropyl]-quinazolin-6-yl}-methyl-propyl-amine], the EC50 was greater than 10000 nM.
